The target of experiment [1] is T1, HSV-1 helicase-primase (UL5(K103A) helicase-primase holoenzyme) (Human herpesvirus 1, UniProt P10189+P10236, K103A).
T1 construct: made in house; host or cells: recombinant baculovirus expression (insect cells, by own knowledge of the cited Dodson 1989 and Dracheva 1995 methods)
In words: HSV-1 Helicase-primase DNA Primase Assay (incorporation of [3H]GTP into primers). Format: biochemical. The source says: i) HSV-1 Helicase-primase DNA Primase Assay
The HSV-1 helicase-primase enzyme used for primase assays was expressed and isolated as described (M. S. Dodson et al., J. Biol. Chem. 1989, 264, 20835; S. Dracheva et al. J. Biol. Chem. 1995, 270, 14148) except that the UL5-expressing baculovirus was changed to express UL5(K103A). The resulting altered enzyme contained no detectable helicase, DNA-dependent ATPase, or ATPase activity. However, DNA primase activity was increased over the wild type enzyme.
Assay: DNA primase activity was measured by the incorporation of [^3 H]GTP into newly synthesized primers by the UL5(K103A) helicase-primase holoenzyme. Assays were performed using as template the 50-mer single-stranded DNA oligonucleotide 5'-CTTCTTCGGT TCCGACTAC CCCTCCCGACTGCCTATGATGTTTATCCTTT G-3'OH (SEQ ID No. 1) derived from the preferred priming site on .phi.X174 single-stranded DNA [D. J. Teney et al., J. Biol. Chem. 1995, 270, 9129-9136]. The reaction mixtures (60 μl) contained […] pH 8.0, 5 mM magnesium chloride, 1 mM DTT, 0.01 % CHAPS, 100 μM each of ATP, GTP, CTP, 10 μM [biotin]UTP, 1 μCi [^3 H]GTP (specific activity 30.8 Ci/mmol), 1 μg of the 50-mer template and 45 μg/ml of the UL5(K103A)-altered helicase-primaseholoenzyme. The samples were incubated at 34° for 45 min in a circulating waterbath and reactions were quenched by the addition of 20 μl 0.5 M EDTA pH 8. Then, 50 μl of the reaction mixtures were transferred to Millipore filtration plates (MHVB N45, 0.45 μm) containing 40 μl of immobilized avidin beads (Pierce). After incubating 30 min at room temperature on a microplate shaker, the wells were washed five times with 300 μl wash buffer (50 mM 4-(2-hydroxyethyl)-1-piperazineethanesulfonic acid (HEPES) pH 7.5 and 0.5 M NaCl) and the filter plates were aspirated to dryness. The radioactivity in each well was counted using the Topcount® after adding 100 μl Microscint® 20 (Camberra-Packard Canada, Mississauga, Ontario, Canada) to each well.
In all cases, compounds were tested in three-fold serial dilutions and the results were expressed as percent inhibition as compared to control reactions without inhibitor. IC50 (i.e., inhibitor concentration that yielded 50% inhibition of enzyme activity) values were determined from dose-response curves using SAS software (SAS Institute, Cary, N.C., USA). A non-linear regression analysis based on the Hill equation, M. Dixon and E.C. Webb Enzymes, Academic Press: New York, N.Y., USA, 1979, was applied to the percent inhibition-concentration data.
(§1) Results for assay i are expressed under the heading HSV-1, IC50 (μM). Results for assay ii are expressed under the heading HSV-1, EC50 (μM).

The next experiment deals with HSV-1. In words: Inhibition of Herpes Simplex Virus (HSV-1) Replication in Cell Culture (ELISA of glycoprotein C). To be noted: Human alphaherpesvirus 1; viral replication in BHK-21 cells, MOI 0.05 PFU/cell, 24 h, 37°. Format: cell-based, HSV-1 strain F or KOS. As for the experimental part:
ii) Inhibition of Herpes Simplex Virus (HSV-1) Replication in Cell Culture
Assay: BHK-21 cells clone 13 (ATCC CCL10) were incubated for two days in 850 cm^2 roller bottles (2×10^7 cells/bottle) with α-MEM medium (Gibco Canada Inc., Burlington, Ontario, Canada) supplemented with 8% (v/v) fetal bovine serum (FBS, Gibco Canada, Inc.). The cells were trypsinized and then 3,000 cells in 100 μL of fresh medium were transferred into each well of a 96-well microtiter plate. The cells were incubated at 37° for a period of 3 days to reach a density of 50,000 cells per well. The cells were washed twice with 100 μL of α-MEM supplemented with 2% heat inactivated FBS and incubated for 1-2 h in 100 μL of the same medium.
Thereafter, the cells were infected with HSV-1 strain F or KOS (multiplicity of infection=0.05 PFU/cell) in 50 μL of α-MEM supplemented with 2% heat inactivated FBS. Following one hour of virus absorption at 37°, the medium was removed and the cells were washed with α-MEM supplemented with 2% heat inactivated FBS (2×100 μL). The cells were incubated with or without 100 μL of the appropriate concentration of test reagent in α-MEM medium supplemented with 2% heat inactivated FBS. After 24 h of incubation at 37°, the extent of viral replication was determined by an ELISA assay; for instance, the following assay that detects the late glycoprotein C of HSV-1.
Cells were fixed in the microtiter plate with 100 μL of 0.063% glutaraldehyde in phosphate buffered saline for 30 min at room temperature. The microtiter plate was then washed once with casein blocking solution and blocked with 200 μL of the same solution for 1 h at room temperature. Thereafter, 100 μL of mAb C11 recognizing the glycoprotein C of HSV-1 (see E. Trybala et al., Journal of General Virology, 1994, 75, 743) was added to each well for 2 h at room temperature. The plate was washed three times with phosphate buffered saline containing 0.05% polyoxyethylene (20) sorbitan monooleate. The cells were incubated with 100 μL of sheep anti-mouse IgG horseradish peroxidase for 1 h at room temperature in the dark.
The plate was washed three times with 200 μL of the above-noted phosphate buffer saline preparation, and then once with 0.1 M sodium citrate (pH 4.5). Thereafter, 100 μL of orthophenylenediamine dihydrochloride (OPD, Gibco, Canada Inc.) was added to each well. The plate was agitated on a microplate shaker for 30 min in the dark. Color development was monitored at 450 nm using a microplate spectrophotometer.
SAS was used to calculate % inhibition of viral replication and to generate EC50 values.
as §1

We go through 27 compounds from patent publication US6323202A, “HSV primase inhibitors” (Boehringer Ingelheim (Canada) Ltd., priority 2000, dated 2001).

T1 sequence (P10189 whole entry, looked up, stated change not applied): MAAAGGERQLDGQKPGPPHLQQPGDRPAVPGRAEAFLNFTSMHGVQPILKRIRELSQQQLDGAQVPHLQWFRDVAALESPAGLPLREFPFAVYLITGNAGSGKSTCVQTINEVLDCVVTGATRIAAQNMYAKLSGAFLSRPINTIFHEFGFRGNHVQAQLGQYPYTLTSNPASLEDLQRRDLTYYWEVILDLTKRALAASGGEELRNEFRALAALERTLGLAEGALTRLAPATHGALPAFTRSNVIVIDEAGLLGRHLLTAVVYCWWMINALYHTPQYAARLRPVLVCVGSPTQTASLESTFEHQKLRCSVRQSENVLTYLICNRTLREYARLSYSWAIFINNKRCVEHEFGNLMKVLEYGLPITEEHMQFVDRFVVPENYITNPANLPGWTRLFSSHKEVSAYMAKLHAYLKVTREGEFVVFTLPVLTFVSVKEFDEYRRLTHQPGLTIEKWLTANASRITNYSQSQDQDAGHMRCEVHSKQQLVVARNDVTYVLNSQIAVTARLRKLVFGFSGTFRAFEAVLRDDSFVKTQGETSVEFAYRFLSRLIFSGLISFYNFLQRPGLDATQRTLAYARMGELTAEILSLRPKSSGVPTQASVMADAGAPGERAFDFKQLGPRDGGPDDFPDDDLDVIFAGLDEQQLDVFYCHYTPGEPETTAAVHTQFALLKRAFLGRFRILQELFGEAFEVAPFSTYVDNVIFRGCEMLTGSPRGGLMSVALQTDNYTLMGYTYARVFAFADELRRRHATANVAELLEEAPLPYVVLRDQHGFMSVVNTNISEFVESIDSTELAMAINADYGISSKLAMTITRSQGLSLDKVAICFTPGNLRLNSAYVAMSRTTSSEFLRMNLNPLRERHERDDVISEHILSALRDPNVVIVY
T1 sequence (P10192 whole entry, stated change not applied, further chain): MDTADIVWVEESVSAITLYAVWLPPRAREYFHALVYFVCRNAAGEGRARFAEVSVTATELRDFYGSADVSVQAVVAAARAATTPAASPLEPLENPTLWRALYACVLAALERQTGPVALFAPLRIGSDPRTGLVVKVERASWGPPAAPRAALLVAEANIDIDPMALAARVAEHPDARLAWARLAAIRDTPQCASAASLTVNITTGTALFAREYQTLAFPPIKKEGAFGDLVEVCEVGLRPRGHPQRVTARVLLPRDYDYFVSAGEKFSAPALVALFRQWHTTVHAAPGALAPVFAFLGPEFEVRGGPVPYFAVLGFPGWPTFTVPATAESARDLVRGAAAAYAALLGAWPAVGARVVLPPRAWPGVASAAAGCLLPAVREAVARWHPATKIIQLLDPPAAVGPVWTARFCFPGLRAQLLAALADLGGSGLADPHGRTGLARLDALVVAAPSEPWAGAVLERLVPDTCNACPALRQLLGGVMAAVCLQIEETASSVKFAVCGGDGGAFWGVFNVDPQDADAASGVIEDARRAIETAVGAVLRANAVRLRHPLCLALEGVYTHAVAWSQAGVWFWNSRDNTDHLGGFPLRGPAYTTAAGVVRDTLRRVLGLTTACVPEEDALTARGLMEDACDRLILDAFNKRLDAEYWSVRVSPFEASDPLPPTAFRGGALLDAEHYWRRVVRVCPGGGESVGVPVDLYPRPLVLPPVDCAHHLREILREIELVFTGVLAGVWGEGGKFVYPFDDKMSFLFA
T1 sequence (P10236 whole entry, stated change not applied): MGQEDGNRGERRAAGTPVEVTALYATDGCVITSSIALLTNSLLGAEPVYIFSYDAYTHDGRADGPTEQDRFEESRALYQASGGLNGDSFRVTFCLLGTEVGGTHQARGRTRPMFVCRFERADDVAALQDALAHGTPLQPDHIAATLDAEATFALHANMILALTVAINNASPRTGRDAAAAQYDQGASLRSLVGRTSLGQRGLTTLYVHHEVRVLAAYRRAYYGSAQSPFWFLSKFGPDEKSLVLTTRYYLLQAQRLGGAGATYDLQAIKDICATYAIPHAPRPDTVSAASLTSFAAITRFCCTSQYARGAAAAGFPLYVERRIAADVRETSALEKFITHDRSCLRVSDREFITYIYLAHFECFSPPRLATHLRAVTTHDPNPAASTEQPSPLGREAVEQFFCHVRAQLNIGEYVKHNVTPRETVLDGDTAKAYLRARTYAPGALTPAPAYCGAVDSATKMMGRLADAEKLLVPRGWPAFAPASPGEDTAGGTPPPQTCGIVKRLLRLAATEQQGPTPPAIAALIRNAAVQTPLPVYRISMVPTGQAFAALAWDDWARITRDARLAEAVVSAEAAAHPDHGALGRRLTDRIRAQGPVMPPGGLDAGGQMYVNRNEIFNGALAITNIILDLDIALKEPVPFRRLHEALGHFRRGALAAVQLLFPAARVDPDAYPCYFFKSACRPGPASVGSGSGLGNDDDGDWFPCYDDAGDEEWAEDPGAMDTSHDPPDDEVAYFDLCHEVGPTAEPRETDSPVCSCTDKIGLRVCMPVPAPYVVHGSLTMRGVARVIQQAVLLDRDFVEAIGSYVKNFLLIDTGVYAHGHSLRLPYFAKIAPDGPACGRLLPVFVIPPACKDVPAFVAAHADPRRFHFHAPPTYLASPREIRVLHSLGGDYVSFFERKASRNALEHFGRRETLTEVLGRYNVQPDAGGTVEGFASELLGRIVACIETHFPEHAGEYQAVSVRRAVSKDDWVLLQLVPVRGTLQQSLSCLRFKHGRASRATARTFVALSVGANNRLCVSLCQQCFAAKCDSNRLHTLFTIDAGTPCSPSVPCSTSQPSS

Regarding `CCCCC(C(=O)OCC)C(=O)c1cccc(NC(=O)c2ccc(Cl)cc2O)c1` (stereo not drawn) [Entry 1, Ethyl α-butyl-3-{(4chloro2-hydroxybenzoyl)amino}-β-oxobenzenepropanoate], in experiment [1], the IC50 lay in the range of 1000 to 100000 nM. In the experiment with HSV-1, this compound returned an EC50 of 1000 to 100000 nM.
`CC(=O)c1cccc(NC(=O)c2ccc(Cl)cc2O)c1` [Entry 2]: in experiment [1], the IC50 was 1000 to 100000 nM. In the experiment with HSV-1, this compound came in with an EC50 of 1000 to 100000 nM.
In the case of `CCOC(=O)CC(=O)c1cccc(NC(=O)c2ccc(Cl)cc2O)c1` [Entry 3], the IC50 in experiment [1] lay within 1000 to 100000 nM. Besides, the concentration giving a half-maximal response (EC50) in the experiment on HSV-1 fell in the range of 1000 to 100000 nM.
Compound `CCCC(=O)c1cccc(NC(=O)c2ccc(Cl)cc2O)c1` [Entry 4] came in with a half-maximal inhibitory concentration (IC50) in experiment [1] of 1000 to 100000 nM. The same compound registered an EC50 in the experiment with HSV-1 of 1000 to 100000 nM.
`O=C(Cc1ccccc1)c1cccc(NC(=O)c2ccc(Cl)cc2O)c1` [Entry 5] gave an IC50 in experiment [1] of 1000 to 100000 nM. In addition, the 50% effective concentration (EC50) with HSV-1 lay within 1000 to 100000 nM.
Consider `O=C(Nc1cccc(C(=O)C2CCCCC2)c1)c1ccc(Cl)cc1O` [Entry 6], for which the IC50 in experiment [1] fell in the range of 1000 to 100000 nM. Also, in the experiment on HSV-1, the EC50 was 1000 to 100000 nM.
Regarding `O=C(CCc1ccccc1)c1cccc(NC(=O)c2ccc(Cl)cc2O)c1` [Entry 7], the IC50 in experiment [1] lay in the range of 1000 to 100000 nM.
In turn, `O=C(OCc1ccccn1)c1cccc(NC(=O)c2ccc(Cl)cc2O)c1` [Entry 8] registered an IC50 in experiment [1] of less than 1000 nM. The EC50 in the experiment on HSV-1 fell in the range of 1000 to 100000 nM.
`O=C(OCc1ccccc1)c1cccc(NC(=O)c2ccc(Cl)cc2O)c1` [Entry 9] showed an IC50 in experiment [1] of less than 1000 nM.
Turning to `O=C(Nc1cccc(C(=O)N2CCCCC2)c1)c1ccc(Cl)cc1O` [Entry 10], in experiment [1], the IC50 is more than 100000 nM. For the same compound, the EC50 in the experiment with HSV-1 is less than 1000 nM.
With `CN(CCc1ccccn1)C(=O)c1cccc(NC(=O)c2ccc(Cl)cc2O)c1` [Entry 11], the IC50 in experiment [1] is more than 100000 nM.
For the compound `CCCCN(C)C(=O)c1cccc(NC(=O)c2ccc(Cl)cc2O)c1` [Entry 12, N-Butyl-N-methyl-3-{(4-chloro-2-hydroxybenzoyl)amino)benzamide], in experiment [1], the IC50 was more than 100000 nM. The compound also gave an EC50 in the experiment with HSV-1 of less than 1000 nM.
Compound `O=C(NCC1CCCCC1)c1cccc(NC(=O)c2ccc(Cl)cc2O)c1` [Entry 13] returned an IC50 in experiment [1] of less than 1000 nM. The compound also displayed an EC50 with HSV-1 of 1000 to 100000 nM.
In the same order, the values of `O=C(NCCc1ccccn1)c1cccc(NC(=O)c2ccc(Cl)cc2O)c1` [Entry 14] are 1000 to 100000 nM and 1000 to 100000 nM.
The corresponding values for `O=C(NCc1ccccc1)c1cccc(NC(=O)c2ccc(Cl)cc2O)c1` [Entry 15] are less than 1000 nM and 1000 to 100000 nM.
The corresponding values for `CCCCNC(=O)c1cccc(NC(=O)c2ccc(Cl)cc2O)c1` [Entry 16] are 1000 to 100000 nM and 1000 to 100000 nM.
`O=C(NCc1ccccn1)c1cccc(NC(=O)c2ccc(Cl)cc2O)c1` [Entry 17] came in with an IC50 in experiment [1] of less than 1000 nM. The compound further displayed an EC50 with HSV-1 of 1000 to 100000 nM.
The corresponding values for `O=C(NC1CCCCC1)c1cccc(NC(=O)c2ccc(Cl)cc2O)c1` [Entry 18] are 1000 to 100000 nM and less than 1000 nM.
`O=C(NCc1ccncc1)c1cccc(NC(=O)c2ccc(Cl)cc2O)c1` [Entry 19] registered an IC50 in experiment [1] of 1000 to 100000 nM.
In turn, `CCCCCC(=O)c1cccc(NC(=O)c2cccc(Cl)c2O)c1` [Entry 101] displayed an IC50 in experiment [1] of 1000 to 100000 nM. The same compound yielded an EC50 in the experiment with HSV-1 of 1000 to 100000 nM.
As for `Cc1ccc(C(=O)Nc2cccc(C(=O)NCc3ccccc3)c2)c(O)c1` [Entry 102], in experiment [1], the IC50 was less than 1000 nM.
The same measure, in the same setting: the result for `COc1ccc(C(=O)Nc2cccc(C(=O)NCc3ccccc3)c2)c(O)c1` [Entry 103] reads less than 1000 nM; that for `[N-]=[N+]=Nc1ccc(C(=O)Nc2cccc(C(=O)NCc3ccccc3)c2)c(O)c1` [Entry 104], less than 1000 nM; that for `Nc1ccccc1C(=O)Nc1cccc(C(=O)NCc2ccccc2)c1` [Entry 105], more than 100000 nM.
On the same count and under the same terms, the figure for `[N-]=[N+]=Nc1cc(O)c(C(=O)Nc2cccc(C(=O)NCc3ccccc3)c2)cc1I` [Entry 106] is less than 1000 nM; for `Nc1cc(Cl)ccc1C(=O)Nc1cccc(C(=O)NCc2ccccc2)c1` [Entry 107] it is more than 100000 nM.
Still for that read-out and setting: the result for `Nc1ccc(C(=O)Nc2cccc(C(=O)NCc3ccccc3)c2)c(O)c1` [Entry 108] reads 1000 to 100000 nM.
